The target of experiment [1] is T1, human D3 receptor (Homo sapiens, UniProt P35462).
T1 construct: expressed in transfected cells; host or cells: Chinese hamster ovary (CHO) cells, membranes
Description: radioligand binding with [^3H]spiperone, D3. The settings on record: ratio of Ki values. A digest of the protocol:
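Membranes from CHO cell lines expressing each human receptor subtype incubated with [^3H]spiperone. Test compounds spanned subnanomolar to micromolar concentrations in competition format.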

Experiment [2] concerns the target T2, human D2long receptor (Homo sapiens, UniProt P14416).
T2 construct: expressed in transfected cells; host or cells: Chinese hamster ovary (CHO) cells, membranes
To be noted: published derivatives with carboxamide alkylene spacer; read-out: Ki D2lo; cited from earlier work.

Experiment [3] has as its target T3, human D2short receptor (Homo sapiens, UniProt P14416).
T3 construct: expressed in transfected cells; host or cells: Chinese hamster ovary (CHO) cells, membranes
To be noted: published derivatives with carboxamide alkylene spacer; read-out: Ki D2sh; cited from earlier work.

The target of experiment [4] is T1, human D3 receptor. The settings on record: published derivatives with carboxamide alkylene spacer; cited from earlier work.
The target of experiment [5] is T4, human D4.4 receptor (Homo sapiens, UniProt P21917).
T4 construct: expressed in transfected cells; host or cells: Chinese hamster ovary (CHO) cells, membranes
T4 sequence (P21917 1-419): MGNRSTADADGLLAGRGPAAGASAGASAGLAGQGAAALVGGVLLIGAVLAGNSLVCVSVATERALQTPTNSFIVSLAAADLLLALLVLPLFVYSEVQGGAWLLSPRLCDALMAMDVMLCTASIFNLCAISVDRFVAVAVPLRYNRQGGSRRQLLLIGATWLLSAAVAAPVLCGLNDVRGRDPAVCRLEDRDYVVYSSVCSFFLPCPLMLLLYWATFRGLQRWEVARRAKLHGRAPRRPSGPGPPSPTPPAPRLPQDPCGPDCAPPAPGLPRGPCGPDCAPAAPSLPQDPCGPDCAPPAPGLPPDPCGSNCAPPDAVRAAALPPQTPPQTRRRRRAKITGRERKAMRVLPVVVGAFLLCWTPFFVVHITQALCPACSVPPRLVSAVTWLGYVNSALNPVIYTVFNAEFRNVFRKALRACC
To be noted: published derivatives with carboxamide alkylene spacer; cited from earlier work.

For experiment [6], the target named is T5, 5-HT1A receptor (Sus scrofa, UniProt A0A4X1UTF5).
T5 construct: membrane preparations from porcine cortical material; from tissue; host or cells: porcine cerebral cortex membranes
T5 sequence (A0A4X1UTF5 1-422): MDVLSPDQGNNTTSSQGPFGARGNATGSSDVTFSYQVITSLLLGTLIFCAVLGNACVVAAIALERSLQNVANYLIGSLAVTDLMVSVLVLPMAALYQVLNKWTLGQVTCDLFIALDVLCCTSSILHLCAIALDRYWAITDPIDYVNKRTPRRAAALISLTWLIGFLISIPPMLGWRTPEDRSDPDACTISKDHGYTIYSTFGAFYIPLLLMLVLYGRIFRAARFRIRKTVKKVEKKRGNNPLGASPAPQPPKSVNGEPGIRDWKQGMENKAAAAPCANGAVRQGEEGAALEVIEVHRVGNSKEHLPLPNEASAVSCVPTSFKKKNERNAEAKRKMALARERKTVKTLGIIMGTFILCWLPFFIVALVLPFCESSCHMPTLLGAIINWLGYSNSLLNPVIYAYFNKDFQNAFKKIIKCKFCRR
The settings on record: published derivatives with carboxamide alkylene spacer; cited from earlier work.

Experiment [7] has as its target T6, 5-HT2 receptor (Sus scrofa, UniProt P50129).
T6 construct: membrane preparations from porcine cortical material; from tissue; host or cells: porcine cerebral cortex membranes
The settings on record: published derivatives with carboxamide alkylene spacer; cited from earlier work.

T1 sequence (P35462 whole entry): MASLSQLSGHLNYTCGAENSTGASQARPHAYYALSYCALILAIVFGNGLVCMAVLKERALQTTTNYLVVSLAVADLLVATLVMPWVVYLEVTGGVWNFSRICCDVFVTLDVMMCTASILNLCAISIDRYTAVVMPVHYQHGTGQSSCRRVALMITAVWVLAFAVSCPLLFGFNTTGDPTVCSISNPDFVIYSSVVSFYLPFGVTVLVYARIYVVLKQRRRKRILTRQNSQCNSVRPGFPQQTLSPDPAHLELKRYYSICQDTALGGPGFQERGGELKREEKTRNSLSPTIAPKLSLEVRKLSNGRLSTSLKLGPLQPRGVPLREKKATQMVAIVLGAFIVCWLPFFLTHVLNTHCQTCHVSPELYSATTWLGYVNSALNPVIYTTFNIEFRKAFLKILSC
T2 sequence (P14416 whole entry): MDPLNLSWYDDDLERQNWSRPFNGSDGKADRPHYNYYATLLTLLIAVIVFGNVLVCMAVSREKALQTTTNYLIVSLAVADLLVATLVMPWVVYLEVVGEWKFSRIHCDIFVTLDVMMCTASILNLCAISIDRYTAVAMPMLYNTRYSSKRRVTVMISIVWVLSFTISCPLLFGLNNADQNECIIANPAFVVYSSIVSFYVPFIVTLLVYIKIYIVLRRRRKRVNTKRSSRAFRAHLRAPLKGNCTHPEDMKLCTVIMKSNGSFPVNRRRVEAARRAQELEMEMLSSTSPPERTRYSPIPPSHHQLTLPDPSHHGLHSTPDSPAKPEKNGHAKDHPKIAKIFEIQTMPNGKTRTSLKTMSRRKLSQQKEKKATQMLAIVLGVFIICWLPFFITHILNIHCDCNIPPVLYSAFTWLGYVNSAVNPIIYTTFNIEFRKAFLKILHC
T3 sequence (P14416 1-414 isoform P14416-2): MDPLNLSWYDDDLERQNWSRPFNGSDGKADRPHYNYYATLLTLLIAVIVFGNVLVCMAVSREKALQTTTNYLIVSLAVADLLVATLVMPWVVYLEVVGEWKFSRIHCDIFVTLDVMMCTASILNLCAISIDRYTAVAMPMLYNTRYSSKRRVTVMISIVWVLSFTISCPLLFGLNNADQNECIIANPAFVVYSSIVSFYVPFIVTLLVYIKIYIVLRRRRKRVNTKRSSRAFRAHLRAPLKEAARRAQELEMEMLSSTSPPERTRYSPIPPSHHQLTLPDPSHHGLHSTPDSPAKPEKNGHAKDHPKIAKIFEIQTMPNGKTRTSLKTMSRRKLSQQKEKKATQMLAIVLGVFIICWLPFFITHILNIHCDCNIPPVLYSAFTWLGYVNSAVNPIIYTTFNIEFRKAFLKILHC
T6 sequence (P50129 whole entry): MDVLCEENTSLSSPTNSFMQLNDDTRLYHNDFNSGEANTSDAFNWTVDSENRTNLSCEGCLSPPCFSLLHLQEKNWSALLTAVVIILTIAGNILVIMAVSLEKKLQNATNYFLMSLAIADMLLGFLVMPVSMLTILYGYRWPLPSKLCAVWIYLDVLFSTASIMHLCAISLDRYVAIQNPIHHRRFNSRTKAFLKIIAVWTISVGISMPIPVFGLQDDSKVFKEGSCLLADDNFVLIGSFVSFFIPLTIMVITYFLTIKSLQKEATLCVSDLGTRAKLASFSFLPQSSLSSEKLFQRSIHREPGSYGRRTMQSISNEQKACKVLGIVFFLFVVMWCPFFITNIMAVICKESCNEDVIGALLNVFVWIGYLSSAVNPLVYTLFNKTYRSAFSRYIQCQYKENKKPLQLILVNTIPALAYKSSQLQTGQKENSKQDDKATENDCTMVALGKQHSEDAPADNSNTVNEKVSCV

For orientation: Ki means the dissociation constant of the complex between target and ligand, obtained from inhibition or displacement. As to `O=C(NCCCCN1CCN(c2cccc(Cl)c2Cl)CC1)c1cc2ccccn2n1` [Example B8], the “ratio D2lo/D3” value in experiment [1] worked out at 180. Moreover, the inhibition constant (Ki) was 66 nM in experiment [2]; 44 nM in experiment [3]; 0.36 nM in experiment [4]; 380 nM in experiment [5]; 53 nM in experiment [6]; 82 nM in experiment [7].

Take `COc1ccccc1N1CCN(CCCCNC(=O)c2ccc3nccn3c2)CC1` [Example B93]: the “ratio D2lo/D3” value in experiment [1] worked out at 11. Besides, the inhibition constant Ki in experiment [2] was 82 nM; in experiment [3], 30 nM; in experiment [4], 7.8 nM; in experiment [5], 140 nM; in experiment [6] it was 12 nM; in experiment [7] it was 950 nM.

Take `COc1ccccc1N1CCN(CCCCNC(=O)c2ccn3ncc(Cl)c3c2)CC1` [Example B29]: the “ratio D2lo/D3” value in experiment [1] was found to be 16. The inhibition constant Ki in experiment [2] is 220 nM; in experiment [3], 96 nM; in experiment [4], 14 nM; in experiment [5] it was 77 nM; in experiment [6] it was 13 nM; in experiment [7] it was 420 nM.

Regarding `O=C(NCCCCN1CCN(c2cccc(Cl)c2Cl)CC1)c1ccn2nccc2c1` [Example B26], in experiment [1], the “ratio D2lo/D3” value is listed as 340. In addition, the Ki in experiment [2] is 86 nM; in experiment [3], 51 nM; in experiment [4] it was 0.25 nM; in experiment [5] it was 210 nM; in experiment [6], 28 nM; in experiment [7] it was 44 nM.

Consider `COc1ccccc1N1CCN(CCCCNC(=O)c2ccn3ncc(Br)c3c2)CC1` [Example B28], for which the “ratio D2lo/D3” value in experiment [1] came out at 15. Further, the Ki in experiment [2] is 180 nM; in experiment [3], 89 nM; in experiment [4], 12 nM; in experiment [5], 59 nM; in experiment [6], 6.4 nM; in experiment [7], 240 nM.

Source of the values: patent US20100168125A1, “INDOLIZINES AND AZA-ANALOG DERIVATIVES THEREOF AS CNS ACTIVE COMPOUNDS” (priority 2007, published 2010).
